Results published in publication PMC9597602, “Metal Complexes as Antifungals? From a Crowd-Sourced Compound Library to the First In Vivo Experiments” (JACS Au, 2022).

How the values were obtained:
[1] = tested on: Acinetobacter baumannii ATCC 19606 type strain; assay: CO-ADD antibacterial MIC assay; format: cell-based; details: initial CO-ADD dose-response screening; ≥80% growth inhibition
Procedure: (§1) For the all the bacterial assays, each bacterial strain was cultured in cation-adjusted Mueller Hinton broth (CAMHB; Bacto Laboratories 212322) at 37 °C overnight. A sample of each culture was then diluted 40-fold in fresh CAMHB and incubated at 37 °C for 1.5–3 h. The resultant mid-log phase cultures were diluted with CAMHB (CFU/mL measured by OD600) and then added to each well of the compound-containing plates (384-well non-binding surface (NBS) plates; Corning CLS3640), giving a cell density of 5 × 10^5 CFU/mL and a total volume of 50 μL. Plates were covered and incubated at 37 °C for 18 h without shaking. Inhibition of bacterial growth was determined by measuring the absorbance at 600 nm (OD600) using media only as negative control and bacteria without inhibitors as positive control. MIC values were determined as the lowest concentration at which the growth was inhibited by ≥80% (equivalent to no visible growth by the eye). Colistin sulfate (Sigma C4461) and vancomycin HCl (Sigma 861987) were used as internal controls on each plate for Gram-negative and Gram-positive bacteria, respectively. All compounds were tested as two technical replicates in two independent biological assays, n = 4 final data.

[2] = tested on: Escherichia coli ATCC 25922 FDA control strain; assay: CO-ADD antibacterial MIC assay; format: cell-based; details: initial CO-ADD dose-response screening; ≥80% growth inhibition
Procedure: as §1

[3] = tested on: Pseudomonas aeruginosa ATCC 27853 QC control strain; assay: CO-ADD antibacterial MIC assay; format: cell-based; details: initial CO-ADD dose-response screening; ≥80% growth inhibition
Procedure: as §1

[4] = tested on: methicillin-resistant Staphylococcus aureus ATCC 43300; assay: CO-ADD antibacterial MIC assay; format: cell-based; details: initial CO-ADD dose-response screening; ≥80% growth inhibition
Procedure: as §1

[5] = tested on: Candida albicans ATCC 90028 NCCLS11; assay: Antifungal MIC assay; format: cell-based; details: initial CO-ADD dose-response screening; ≥80% growth inhibition
Procedure: For the fungal assays, both fungi (yeast) strains were cultured for 3 days on Yeast Extract-Peptone Dextrose (YPD; Becton Dickinson 242720) agar at 30 °C. A yeast suspension of 1 × 10^6 to 5 × 10^6 CFU/mL (as determined by OD530) was prepared from five colonies from the agar plates, subsequently diluted with Yeast Nitrogen Base media (YNB; Becton Dickinson 233520), and added to each well of the compound containing plates (384-well plates, NBS; Corning CLS3640), giving a final cell density of 2.5 × 10^3 CFU/mL and a total volume of 50 μL. Plates were covered and incubated at 35 °C for 36 h without shaking. […] […], equivalent to ″optically clear-to-slightly hazy″ or MIC score of 0–1 as per CLSI guidelines M27 Reference Method for Broth Dilution Antifungal Susceptibility Testing of Yeasts. […] Fluconazole (Sigma F8929) was used as internal control on each plate for all strains. All compounds were tested as two technical replicates in two to four independent biological assays, n = 4–8 final data.

[6] = tested on: Cryptococcus neoformans H99 ATCC 208821 type strain; assay: Antifungal MIC assay; format: cell-based; details: initial CO-ADD dose-response screening; ≥80% growth inhibition
Procedure: For the fungal assays, both fungi (yeast) strains were cultured for 3 days on Yeast Extract-Peptone Dextrose (YPD; Becton Dickinson 242720) agar at 30 °C. A yeast suspension of 1 × 10^6 to 5 × 10^6 CFU/mL (as determined by OD530) was prepared from five colonies from the agar plates, subsequently diluted with Yeast Nitrogen Base media (YNB; Becton Dickinson 233520), and added to each well of the compound containing plates (384-well plates, NBS; Corning CLS3640), giving a final cell density of 2.5 × 10^3 CFU/mL and a total volume of 50 μL. Plates were covered and incubated at 35 °C for 36 h without shaking. […] MIC values were recorded as the lowest concentration at which the growth was inhibited by ≥80%, equivalent to ″optically clear-to-slightly hazy″ or MIC score of 0–1 as per CLSI guidelines M27 Reference Method for Broth Dilution Antifungal Susceptibility Testing of Yeasts. […] Fluconazole (Sigma F8929) was used as internal control on each plate for all strains. All compounds were tested as two technical replicates in two to four independent biological assays, n = 4–8 final data.

[7] = tested on: HEK-293 human embryonic kidney cells ATCC CRL-1573; details: initial CO-ADD screening, 20 h; for CC50: read-out: HEK CC50
Procedure: The cells were incubated together with the compounds for 20 h at 37 °C in 5% CO2. […] Tamoxifen (Sigma T5648) was used as internal control on each plate.

human red blood cells = format: cell-based; details: initial CO-ADD screening, 1 h; 10% hemolysis
Procedure: Human whole blood (Australian Red Cross) was washed three times with 3 vol of 0.9% NaCl and resuspended in a concentration of 0.5 × 10^8 cells/mL, determined by a manual cell count in a Neubauer hemocytometer. […] After incubation, the plates were centrifuged at 1000g for 10 min to pellet cells and debris; 25 μL of the supernatant was then transferred to reading plates (384-well, polystyrene plated (PS), Corning CLS3680), with hemolysis determined by measuring the supernatant absorbance at […] (OD405) using cells without inhibitors as negative control and cells with 1% Triton X-100 (Sigma T8787) as positive control. […] Melittin (Sigma M2272) was used as internal control on each plate.

Row | MIC Ab [1] | MIC Ec [2] | MIC Pa [3] | MIC MRSA (Sa) [4] | MIC Ca [5] | MIC Cn [6] | SMILES | HEK CC50 [7] [µg/mL] | RBC HC10 (human red blood cells) | CC50 [7] [µM]
1 | 32 µg/mL | > 32 µg/mL | > 32 µg/mL | <= 0.25 μg/mL | <= 0.25 μg/mL | <= 0.25 μg/mL | Cc1cccc2[n+]1[Pd-2]([Cl])([Cl])[n+]1c(C)cccc1C(C(C)(C)C)=C=C2c1ccccc1 [HM_C2] | 1.1 | > 32 µg/mL | 
2 | 32 µg/mL | > 32 µg/mL | 32 µg/mL | 2 µg/mL | <= 0.25 μg/mL | <= 0.25 μg/mL | Cc1cccc(C2(c3ccccc3)[C]([Au-][Cl])=C(C(C)(C)C)c3cccc(C)[n+]32)n1 (centres unmarked) [Au-S15] | > 32 | > 32 µg/mL | 
3 | > 32 µg/mL | > 32 µg/mL | > 32 µg/mL | 16 µg/mL | 4 µg/mL | <= 0.25 μg/mL | Cc1cccc2[n+]1[Au-]([Cl])([Cl])[n+]1c(C)cccc1C(C(C)(C)C)=C=C2c1ccccc1.[Cl-] [Au-S12] | > 32 | <= 0.25 μg/mL | 
4 | 32 µg/mL | 16 µg/mL | > 32 µg/mL | <= 0.25 μg/mL | 2 µg/mL | <= 0.25 μg/mL | CC1=CC=CC2=C(c3ccccc3)[C](=[Au]([Cl])([Cl])[Cl])C(c3ccccc3)(c3cccc(C)n3)N12 (centres unmarked) [Au-S13] | > 32 | 19.3 µg/mL | 
5 | > 32 µg/mL | > 32 µg/mL | > 32 µg/mL | > 32 µg/mL | 16 µg/mL | 16 µg/mL | O=C([O][Ag])c1ccc(N2N=C(/C=C/c3ccccc3)CC2c2ccccc2)cc1.O=C([O][Ag])c1ccc(N2N=C(/C=C/c3ccccc3)CC2c2ccccc2)cc1 (racemic) [Ag3] | > 32 | > 32 µg/mL | 
6 | > 32 µg/mL | > 32 µg/mL | > 32 µg/mL | 2 µg/mL | 16 µg/mL | 1 µg/mL | Cc1cccc2[n+]1[Pd-2]([Cl])([Cl])[n+]1c(C)cccc1C(c1ccccc1)=C=C2c1ccccc1 [HM_C1] | 1.0 | > 32 µg/mL | 
7 | > 20 µM | > 20 µM | > 20 µM | > 20 µM | > 20 µM | 20 µM | Nc1cc2cccnc2c2ncccc12.O=C([O][Eu]([O]C(=O)c1ccccc1F)[O]C(=O)c1ccccc1F)c1ccccc1F [Eu-S4] |  | 1.2 µM | 3.3
8 | > 32 µg/mL | > 32 µg/mL | > 32 µg/mL | > 32 µg/mL | 32 µg/mL | > 32 µg/mL | Cc1cccc(C(=C=C(c2cccc(C)n2)C(C)(C)C)c2ccccc2)n1.[Cl][Pt]([Cl])([Cl])[Cl] [HM_C5] | > 32 | > 32 µg/mL | 
9 | > 20 µM | > 20 µM | > 20 µM | 10 µM | 20 µM | 5 µM | O=C([O][Eu]([O]C(=O)c1ccccc1F)[O]C(=O)c1ccccc1F)c1ccccc1F.c1ccc(-c2ccnc3c2ccc2c(-c4ccccc4)ccnc23)cc1 [Eu-S3] |  | > 20 µM | 14.7
10 | > 20 µM | > 20 µM | > 20 µM | 1.25 µM | 10 µM | 0.625 µM | O=C([O][Eu]([O]C(=O)c1ccc(F)cc1F)[O]C(=O)c1ccc(F)cc1F)c1ccc(F)cc1F.c1ccc(-c2ccnc3c2ccc2c(-c4ccccc4)ccnc23)cc1 [Eu-S2] |  | 0.7 µM | 15.9
